Columns and labels:
[1] = test system: Leishmania donovani promastigotes; assay: L. donovani screening (Alamarblue); assay type: cell-based
Outline: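 Growth read as Alamarblue fluorescence (530 nm excitation, 590 nm emission) after culture at 27° C. Single-point screen: 10 μM compound, 4×10^5 cells/ml, 96 h; titration: 0.005–10 μM in third-steps, 1×10^6 cells/ml, 72 h, using exponentially growing procyclic promastigotes.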

[2] = test system: Giardia duodenalis (strain WB trophozoites); assay: Giardia adherence assay; assay type: cell-based; details: exposed for 5 hours
Procedure: Giardia strain WB was grown until confluent (grown and maintained in TYI-S-33 medium with 10% foetal bovine serum). For the assay, media of a confluent culture was replaced with fresh TYI-S-33 medium. Cultures were then cold shocked (on ice) for 40 minutes to detach trophozoites. The cell density of the cultures was adjusted to 1×10^6 cells/ml and 1 ml was added to each well of a 24 well plate already containing 1 ml of diluted compounds (see below). […] After incubation the coverslips were removed, air-dried and stained with Diff-Quik (a Romanowski stain variant). Coverslips were mounted onto glass slides using polymount. Images at 10× magnification were taken at 5 random locations per coverslip. […] Stock solutions of compounds were prepared in DMSO at 25.6 mg/ml. Compounds were diluted 1:100 in TYI-S-33 medium. A 1:2 serial dilution was then performed in TYI-S-33 medium in 24 well plates.

[3] = test system: Giardia duodenalis trophozoites; assay: Resazurin reduction assay (Example 3); assay type: cell-based; details: 42 hours, then 6 hours with Alamarblue
Procedure: Giardia trophozoites were grown until confluent. The media was replaced with fresh media and they were cold shocked for 40 minutes (as above). Cells were diluted to a concentration of ˜500 000 cells/ml and 100 μl were added to each well of the assay plate (except media only control). The assay was incubated in an anaerobic environment (candle jar) for 42 hours at 37° C. […] After incubation the absorbance of each sample was read at 570 and 630 nm. The percent reduction of resazurin (Alamarblue™) was calculated and data was analysed with GraphPad Prism v6 software. Assay set-up: the assay was performed in 96 well plates in a total volume of 200 μl. 100 μl of NCL812 or NCL062 (concentration of 25.6 mg/ml in DMSO) or metronidazole (concentration 5 mg/ml in DMSO) stock was added to 9.9 ml of TYI-S-33 medium, then serially diluted 1:2 in the same medium. Cells were added as above.

[4] = Exposure in male Swiss outbred mice following IV administration; assay type: in vivo
Procedure: The systemic exposures of NCL026, NCL195, NCL259 and NCL812 were studied in nonfasted male Swiss outbred mice weighing 26.2-32.1 g. Mice had access to food and water ad libitum throughout the pre- and post-dose sampling period. Each compound was administered IV via a bolus injection into the tail vein (vehicle 20% (v/v) DMSO in PEG400, 1 mL/kg dose volume, n=8 mice per compound). […] A maximum of two samples were obtained from each mouse, with samples being taken either via submandibular bleed (approximately 120 μL; conscious sampling) or terminal cardiac puncture (0.6 mL; while mice were anaesthetised using inhaled Isoflurane). No urine samples were collected as mice were housed in bedded cages during the study. Blood was collected directly into polypropylene Eppendorf tubes containing heparin as anticoagulant, and stabilisation cocktail (containing Complete® (a protease inhibitor cocktail with EDTA) and potassium fluoride) to minimise the potential for ex vivo degradation of the test compounds in blood/plasma samples. Once collected, blood samples were centrifuged immediately, supernatant plasma was removed, and stored at −80° C. until analysis by LC-MS using methods standard in the art. Each compound was administered in a vehicle composed of 20% (v/v) DMSO in PEG400. Formulations were prepared by dissolving the compounds in DMSO prior to addition of PEG400. Formulations were not filtered prior to dosing and were administered to mice within 2.5 h of preparation. […] The dose administered to each mouse was calculated on the basis of the measured concentration in the IV formulation, the dose volume and individual mouse body weight. Plasma concentration versus time data were analysed using non-compartmental methods (WinNonlin Version 6.3.0.395). Standard calculations for each pharmacokinetic parameter were calculated using standard methods in the art.

N=C(N/N=C/c1ccc(Cl)cc1)N/N=C/c1ccc(Cl)cc1 [NCL812, 1,3-bis[(E)-(4-chlorophenyl)methyleneamino]guanidine]
L. donovani SI ([1]; GI50 of macrophages divided by IC50 of parasites): 5.12
IC50 ([1]; Leishmania donovani, 72 h): 2.9 ± 0.24 µM
number of adherent trophozoites [2]: significant decreases
metabolic activity of the trophozoites (percentage of reduction of resazurin) [3]: reduction in the metabolic activity
adverse reactions after IV dosing ([4]; IV, 5 mg/kg, one mouse): abnormal behaviour (frantic, hyperactive)
AUC0-inf ([4]; male, Swiss outbred, mouse, in vivo, IV 5 mg/kg, values marked a, b are approximations, read-out: AUC0-inf): 27.9 µM·h
Vd ([4]; male, Swiss outbred, mouse, in vivo, IV 5 mg/kg, values marked a, b are approximations, read-out: Plasma Vss): 5.9 L/kg
clearance ([4]; male, Swiss outbred, mouse, plasma, IV 5 mg/kg, values marked a, b are approximations, read-out: Plasma CL): 9.5 mL/min/kg
half-life ([4]; male, Swiss outbred, mouse, IV 5 mg/kg, plasma, value marked b is an approximation, read-out: Apparent t1/2 (converted)): 8.2 h

Reference: patent US10392363B2, “Methods for treating protozoan infections” (Neoculi Pty Ltd., priority 2014, dated 2019)
